Measurements taken from the supplement of paper PMC10627819.

Legend:
[1] = tested on: B. subtilis 168; assay: Bliss interaction score (quartile over a dose matrix) (fitness difference); higher = more antagonism (negative = synergy)
Method in brief: (§1)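 The Bliss score takes observed fitness and subtracts the expected fitness, calculated as a product of single-drug fitness values. Those single-drug values were inferred from the combination data. Fitness is OD595 at entry into stationary phase divided by the plate's robust no-drug mean, capped at 1, and the score is summarised by quartiles across technical, biological and donor/recipient replicates.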

[2] = tested on: S. aureus DSM 20231; assay: as above
Method in brief: as §1

[3] = tested on: S. aureus Newman; assay: as above
Method in brief: as §1

[4] = tested on: S. pneumoniae D39V; assay: as above
Method in brief: as §1

[5] = tested on: S. aureus DSM 20231; assay: fitness (endpoint OD595 vs no drug) (fraction); higher = more growth
Method in brief: (§2)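 Fitness was measured as bacterial growth in 384-well plates inoculated at OD595 0.01 (30 µl, or 55 µl for S. pneumoniae). Media were TSB, LB Lennox or CY, at 37 °C. OD595 was read every 30 min for 14 h and background-subtracted against the first reading. Fitness is OD595 at the transition into stationary phase divided by the robust mean of no-drug control wells, capped at 1.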

[6] = tested on: S. aureus Newman; assay: as above
Method in brief: as §2

[7] = tested on: S. pneumoniae D39V; assay: as above
Method in brief: as §2
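For Bliss interaction score (quartile over a dose matrix) in this document: first quartile when negative (synergy) and third quartile when positive (antagonism).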
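For fitness (endpoint OD595 vs no drug) in this document: OD595 on entry to stationary phase over no-drug wells; at most 1.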

CO/N=C(\C(=O)N[C@@H]1C(=O)N2C(C(=O)[O-])=C(C[N+]3(C)CCCC3)CS[C@H]12)c1csc(N)n1 [Cefepime] + C[C@@H]1O[C@@H]1P(=O)(O)O [Fosfomycin]
Conditions | Bliss interaction score
[1] | -0.0571
[2] | -0.0913
[3] | 0.16
[4] | -0.0837

Conditions | fitness
[5], first compound 0.125 µg/mL, partner 0.781 µg/mL | 0.649
[5], first compound 0.125 µg/mL, partner 1.562 µg/mL | 0.503
[5], first compound 0.125 µg/mL, partner 3.124 µg/mL | 0.456
[5], first compound 0.25 µg/mL, partner 0.781 µg/mL | 0.633
[5], first compound 0.25 µg/mL, partner 1.562 µg/mL | 0.512
[5], first compound 0.25 µg/mL, partner 3.124 µg/mL | 0.488
[5], first compound 0.5 µg/mL, partner 0.781 µg/mL | 0.67
[5], first compound 0.5 µg/mL, partner 1.562 µg/mL | 0.559
[5], first compound 0.5 µg/mL, partner 3.124 µg/mL | 0.539
[6], first compound 0.125 µg/mL, partner 0.781 µg/mL | 0.691
[6], first compound 0.125 µg/mL, partner 1.562 µg/mL | 0.599
[6], first compound 0.125 µg/mL, partner 3.124 µg/mL | 0.301
[6], first compound 0.25 µg/mL, partner 0.781 µg/mL | 0.653
[6], first compound 0.25 µg/mL, partner 1.562 µg/mL | 0.587
[6], first compound 0.25 µg/mL, partner 3.124 µg/mL | 0.305
[6], first compound 0.5 µg/mL, partner 0.781 µg/mL | 0.659
[6], first compound 0.5 µg/mL, partner 1.562 µg/mL | 0.568
[6], first compound 0.5 µg/mL, partner 3.124 µg/mL | 0.276
[7], first compound 0.007 µg/mL, partner 1.25 µg/mL | 0.966
[7], first compound 0.007 µg/mL, partner 2.5 µg/mL | 0.911
[7], first compound 0.007 µg/mL, partner 5 µg/mL | 0.677
[7], first compound 0.0078 µg/mL, partner 1.25 µg/mL | 0.987
[7], first compound 0.0078 µg/mL, partner 2.5 µg/mL | 0.957
[7], first compound 0.0078 µg/mL, partner 5 µg/mL | 0.755
[7], first compound 0.014 µg/mL, partner 1.25 µg/mL | 0.984
[7], first compound 0.014 µg/mL, partner 2.5 µg/mL | 0.889
[7], first compound 0.014 µg/mL, partner 5 µg/mL | 0.62
[7], first compound 0.0155 µg/mL, partner 1.25 µg/mL | 0.962
[7], first compound 0.0155 µg/mL, partner 2.5 µg/mL | 0.932
[7], first compound 0.0155 µg/mL, partner 5 µg/mL | 0.633
[7], first compound 0.028 µg/mL, partner 1.25 µg/mL | 0.844
[7], first compound 0.028 µg/mL, partner 2.5 µg/mL | 0.707
[7], first compound 0.028 µg/mL, partner 5 µg/mL | 0.273
[7], first compound 0.031 µg/mL, partner 1.25 µg/mL | 0.789

CO/N=C(\C(=O)N[C@@H]1C(=O)N2C(C(=O)[O-])=C(C[N+]3(C)CCCC3)CS[C@H]12)c1csc(N)n1 [Cefepime] + C[n+]1ccc(-c2cc[n+](C)cc2)cc1 [Paraquat]
Conditions | Bliss interaction score
[1] | -0.121
[2] | -0.0615
[3] | 0.0489
[4] | 0.0315

Conditions | fitness
[5], first compound 0.125 µg/mL, partner 1.25 µg/mL | 0.9
[5], first compound 0.125 µg/mL, partner 2.5 µg/mL | 0.888
[5], first compound 0.125 µg/mL, partner 5 µg/mL | 0.874
[5], first compound 0.25 µg/mL, partner 1.25 µg/mL | 0.889
[5], first compound 0.25 µg/mL, partner 2.5 µg/mL | 0.876
[5], first compound 0.25 µg/mL, partner 5 µg/mL | 0.821
[5], first compound 0.5 µg/mL, partner 2.5 µg/mL | 0.853
[5], first compound 0.5 µg/mL, partner 5 µg/mL | 0.837
[6], first compound 0.125 µg/mL, partner 1.25 µg/mL | 0.901
[6], first compound 0.125 µg/mL, partner 2.5 µg/mL | 0.916
[6], first compound 0.125 µg/mL, partner 5 µg/mL | 0.898
[6], first compound 0.25 µg/mL, partner 1.25 µg/mL | 0.851
[6], first compound 0.25 µg/mL, partner 2.5 µg/mL | 0.854
[6], first compound 0.25 µg/mL, partner 5 µg/mL | 0.846
[6], first compound 0.5 µg/mL, partner 1.25 µg/mL | 0.768
[6], first compound 0.5 µg/mL, partner 2.5 µg/mL | 0.773
[6], first compound 0.5 µg/mL, partner 5 µg/mL | 0.839
[7], first compound 0.007 µg/mL, partner 1.5 µg/mL | 0.99
[7], first compound 0.007 µg/mL, partner 3 µg/mL | 0.996
[7], first compound 0.007 µg/mL, partner 6 µg/mL | 0.971
[7], first compound 0.014 µg/mL, partner 1.5 µg/mL | ≥ 1
[7], first compound 0.014 µg/mL, partner 3 µg/mL | ≥ 1
[7], first compound 0.014 µg/mL, partner 6 µg/mL | ≥ 1
[7], first compound 0.028 µg/mL, partner 1.5 µg/mL | 0.934
[7], first compound 0.028 µg/mL, partner 3 µg/mL | 0.917
[7], first compound 0.028 µg/mL, partner 6 µg/mL | 0.869

fitness, [7], one replicate
Conditions | first compound 0.0078 µg/mL | first compound 0.0155 µg/mL | first compound 0.031 µg/mL
partner 1.5 µg/mL | 0.994 | 0.985 | 0.957
partner 3 µg/mL | ≥ 1 | ≥ 1 | 0.975
partner 6 µg/mL | ≥ 1 | ≥ 1 | ≥ 1

CO/N=C(\C(=O)N[C@@H]1C(=O)N2C(C(=O)[O-])=C(C[N+]3(C)CCCC3)CS[C@H]12)c1csc(N)n1 [Cefepime] + Cc1cc(NS(=O)(=O)c2ccc(N)cc2)no1 [Sulfamethoxazol]
Conditions | Bliss interaction score
[1] | 0.0793
[2] | -0.0768
[3] | -0.0727
[4] | 0.034

fitness
Conditions | first compound 0.007 µg/mL | first compound 0.014 µg/mL | first compound 0.028 µg/mL | first compound 0.125 µg/mL | first compound 0.25 µg/mL | first compound 0.5 µg/mL
[5], partner 1 µg/mL | – | – | – | 0.839 | 0.739 | 0.79
[5], partner 2 µg/mL | – | – | – | 0.88 | 0.766 | 0.84
[5], partner 4 µg/mL | – | – | – | 0.874 | 0.779 | 0.823
[6], partner 1 µg/mL | – | – | – | 0.956 | 0.875 | 0.745
[6], partner 2 µg/mL | – | – | – | 0.908 | 0.843 | 0.773
[6], partner 4 µg/mL | – | – | – | 0.964 | 0.863 | 0.789
[7], partner 1 µg/mL | 0.978 | 0.991 | 0.887 | – | – | –
[7], partner 2 µg/mL | 0.982 | 0.986 | 0.922 | – | – | –
[7], partner 4 µg/mL | 0.98 | 0.992 | 0.892 | – | – | –

fitness, one replicate
Conditions | first compound 0.0078 µg/mL | first compound 0.0155 µg/mL | first compound 0.031 µg/mL | first compound 0.125 µg/mL | first compound 0.25 µg/mL | first compound 0.5 µg/mL
[6], partner 8 µg/mL | – | – | – | 0.981 | 0.972 | 0.854
[7], partner 1 µg/mL | ≥ 1 | 0.99 | 0.842 | – | – | –
[7], partner 2 µg/mL | ≥ 1 | ≥ 1 | 0.866 | – | – | –
[7], partner 4 µg/mL | 0.959 | 0.914 | 0.804 | – | – | –
